Measurements: patent US20230301972A1, “ANTI-FIBROTIC COMPOSITION AND RELATED METHODS” (Fred Hutchinson Cancer Center, priority 2020, published 2023)

Experiments:
SMAD2/3 = experiment: SMAD firefly luciferase TGF-β reporter assay in IPF-LL29 cells; assay type: cell-based, human; settings: TGF-β 5 ng/ml, 24 hour
Procedure: (§1) IPF-LL29, IPF-LL97A, and human lung fibroblast LL47 cell lines were purchased from ATCC. Mouse lung fibroblasts were isolated from the lungs of male C57BL/6J mice. Cells were grown at 37° C. under 5% CO2, 95% ambient atmosphere and maintained in Dulbecco's […] (DMEM) supplemented with 10% FBS (Sigma) and 1% Penn Strep.
FIG. 1A. A TGF-β reporter cell line was generated by transducing a SMAD firefly luciferase reporter (Cellomics Tech, Cat #PLV-10099-50) into IPF-LL29 cells. […] 24 hours later, luciferase substrate was added to the cells and luciferase signal was measured by Bright-Glo reagent (Promega) using a luminescent plate reader. The intensity of the signal correlates with the activity of SMAD2/3.

[1] = test system: Human lung fibroblasts (LL47); experiment: qPCR of TGF-β-induced gene expression in human lung fibroblasts LL47; assay type: cell-based; settings: OSI-632 1 mM as printed; LL47, 24 hours
Procedure: as §1
(§2) FIGS. 3A and 3B. Human lung fibroblast LL47 and mouse primary lung fibroblasts isolated from mouse lungs were incubated with TGF-β alone at 5 ng/ml or TGF-β with indicated drugs for 24 hours. Same method as outlined in FIGS. 2A and 2B was used to measure the mRNA expression of indicated human or mouse genes.

[2] = test system: bleomycin-induced lung fibrosis; experiment: Bleomycin-induced lung fibrosis mouse model; assay type: in vivo
Procedure: FIG. 6B: Male C57BL/6J mice between 7-10 week old were used in the study. A single dose of 50 IU of bleomycin was given to mouse lung via oropharyngeal aspiration to induce lung fibrosis. […] Mice were sacrificed on Day 28 after bleomycin treatment. Lungs were either snap frozen or fixed in 10% formalin and stained for H&E and Masson Trichrome.
FIG. 6C: H&E and Masson Trichrome staining were evaluated and scored by a board-certified veterinary pathologist.
FIG. 7A: Total protein was extracted from the snap frozen lung tissue in T-PER™ Tissue Protein Extraction Reagent by Omni Bead Ruptor homogenizer. Changes in collagen I and the phosphorylation levels of indicated proteins were detected in the lung homogenates from the bleomycin in vivo studies by reverse-phase protein array.
FIG. 7B: pSTAT3 levels were detected in the fixed lung tissue by immunohistochemistry. Intensity of staining was quantified by HALO imaging software.
FIG. 8: Total RNA was extracted from the snap frozen lung tissue in TRIzol™ Reagent by Omni Bead Ruptor homogenizer. 1 μg of total RNA was reverse transcribed into first-strand cDNA using an RT2 First Strand Kit (QIAGEN). The resultant cDNA was subjected to qPCR using indicated mouse primers to measure the changes in mRNA expression of indicated mouse genes.
A single dose of 25-50 IU of bleomycin was given to mouse lung via oropharyngeal aspiration to induce lung fibrosis. […] Lungs were processed and stained for H&E and Masson Trichrome.

CCl4-induced fibrosis = experiment: Carbon tetrachloride (CCl4)-induced liver fibrosis mouse model; assay type: in vivo; settings: vs CCl4-only treated mouse livers tissues; RPPA, IHC
mouse lung fibroblasts = experiment: qPCR of TGF-β-induced gene expression in mouse primary lung fibroblasts; assay type: cell-based; settings: TGF-β 5 ng/ml, 24 hours
Procedure: as §1, §2

[3] = test system: TGF-β activity in LX2 cells; experiment: SMAD2/3 luciferase reporter assay of TGF-β activity in LX2 cells; assay type: cell-based, human
Text: In preliminary studies, a well-established, culture-activated human hepatic stellate cell model (LX2, initially established by Scott Friedman as described in Xu, L. et al., Human hepatic stellate cell lines, LX-1 and LX-2: new tools for analysis of hepatic fibrosis. Gut 54, 142-151 (2005), incorporated herein by reference in its entirety) was used and a set of 32 computationally chosen, broad-specific kinase inhibitors that collectively target a broad range of kinases were screened. Each drug was examined at eight concentrations, and its effect on the activity of TGF-β (measured by SMAD2/3 luciferase reporter) and on aHSC cell viability was scored. 1536 data points were then analyzed to develop regression modeling to predict the response to >400 drugs (FIG. 9A). […] (FIG. 9B).
LX2 cells were obtained from Sigma Aldrich (Cat #SCC064). LX2 cells were grown at 37° C. under 5% CO2, 95% ambient atmosphere and maintained in Dulbecco's […] (DMEM) supplemented with 10% FBS (Sigma) and 1% Penn Strep.

IPF lung fibroblasts = experiment: Collagen contraction assay in lung fibroblasts; assay type: cell-based, human
Procedure: FIG. 5B: LL-47 cells were cultured in a collagen gel solution in 24-well plate. […] After 24 hours, cell contraction was initiated by releasing the collagen gels from the sides of the culture dishes. The collagen gel size change (contraction index) was measured at various times and quantified with Image Lab.
FIG. 5C: same method as outlined in FIG. 5B. IPF-LL29 and IPF-LL97A cells were cultured in a collagen gel solution. 24 hours later, TGF-β alone or together with indicated drugs was added for 24 hours before cell contraction was initiated. Images shown here were taken 120 hours after the initiation of cell contraction.

LL47 cells = experiment: Real-time wound healing assay (Incucyte) in lung fibroblasts; assay type: cell-based; settings: dose-dependent; human lung fibroblasts
Procedure: FIG. 5A: LL47 cells were plated on 96-well plates (Essen Image Lock, Essen Instruments). […] Wound closure was monitored with Incucyte Live-Cell Imaging System and software (Essen Instruments) every 2-4 hours for 72 hours. The mean relative wound density of at least three biological replicates was calculated. The wound density correlates with the cell motility.

TGF-β = experiment: Time course of TGF-β-induced phosphorylation of SMAD2 and ERK in IPF-LL29 cells (reverse-phase protein array); assay type: cell-based, human; settings: 1 mM OSI-632 as printed, TGF-β 5 ng/ml
Procedure: as §1
FIG. 1B. […] At the end of the experiment, cells were lysed in 2% SDS lysis buffer. Protein levels of phosphorylated SMAD2 and ERK were detected in the cell lysates by reverse-phase protein array.

NC(=O)c1c(OCc2c(F)cc(Br)cc2F)nsc1NC(=O)NCCCCN1CCCC1 [OSI-632, 3-(4-bromo-2,6-difluoro-benzyloxy)-5-[3-(4-pyrrolidin-1-yl-butyl)-ureido]-isothiazole-4-carboxylic acid amide]
SMAD2/3 activity (luciferase reporter, dose response) (SMAD2/3): inhibited SMAD2/3 activity | TGFb-induced expression of COL1A1, ACTA2, and FN1 and of indicated proliferation stimuli [1]: inhibited | lung fibrosis, scoring of H&E and Masson Trichrome staining by veterinary pathologist ([2]; 50 mg/kg oral, once a day Monday to Friday for 2 weeks, mice): significantly decreased lung fibrosis | lung inflammation, scoring of H&E and Masson Trichrome staining ([2]; bleomycin mouse model): significantly decreased | overall survival ([2]; bleomycin mouse model, OSI-632 treatment): 100% | collagen deposition (Masson trichome staining) ([2]; vs bleomycin only treated mice, 50 mg/kg): significant reduction | phosphorylation of Src, Erk, JNK, S6, Nfκβ, and pSTAT3 in lung ([2]; vs bleomycin-only treated mouse lung tissues, RPPA, IHC): significantly decreased | bleomycin-induced collagen levels and pro-fibrotic factors Fn1, IL-6 and IL-1b in lung ([2]; vs bleomycin-only treated mouse lung tissues, RPPA, qPCR): significantly decreased | CCl4-induced phosphorylation of Smad2, Pdgfrb, Fgfr, Src, Nfκβ, and STAT3 (CCl4-induced fibrosis): significantly decreased | expression of indicated fibroblast activation and proliferation factors (mouse lung fibroblasts): inhibited expression | IC50 ([3]; Homo sapiens, LX-2, SMAD2/3 luciferase reporter): 13.7 nM | block of TGF-β activity compared with galunisertib and pirfenidone ([3]; LX2 cells): outperformed | contractility in collagen contraction assay (IPF lung fibroblasts; 0.5 or 1 mM OSI-632 as printed, TGF-β-stimulated): significantly decreased contractility | inhibition of motility and contraction compared with nintedanib or pirfenidone (IPF lung fibroblasts; collagen contraction assay, IPF-LL29 and IPF-LL97A cells, 120 hours): significantly outperforms inhibition by nintedanib or pirfenidone | motility (cell migration), real-time wound healing assay (LL47 cells): potently decreased motility | activity of TGF-β (measured by phosphorylation of SMAD2/3 and Erk) (TGF-β): significantly decreased
